Assay: mn = molality of the nth substance listed, in mol/kg
Details: 101 kPa, Liquid; for speed of sound: Pulse-echo method

OC[C@H]1O[C@H](OC[C@H]2O[C@H](O[C@]3(CO)O[C@H](CO)[C@@H](O)[C@@H]3O)[C@H](O)[C@@H](O)[C@@H]2O)[C@H](O)[C@@H](O)[C@H]1O [D-raffinose] + O
Details | mass density, 293.15 K [kg/m3] | mass density, 298.15 K [kg/m3] | mass density, 303.15 K [kg/m3] | mass density, 308.15 K [kg/m3] | mass density, 313.15 K [kg/m3] | speed of sound, 293.15 K [m/s] | speed of sound, 298.15 K [m/s] | speed of sound, 303.15 K [m/s] | speed of sound, 308.15 K [m/s] | speed of sound, 313.15 K [m/s]
m1 = 0.05 | 1007.77 | 1006.5 | 1004.91 | 1003.05 | 1001.02 | 1491.8 | 1505.7 | 1517.8 | 1528.3 | 1537.3
m1 = 0.055 | 1008.68 | 1007.4 | 1005.81 | 1003.92 | 1001.99 | 1492.6 | 1506.5 | 1518.6 | 1529.1 | 1538.1
m1 = 0.06 | 1009.59 | 1008.29 | 1006.72 | 1004.79 | 1002.85 | 1493.5 | 1507.3 | 1519.4 | 1529.8 | 1538.8
m1 = 0.065 | 1010.49 | 1009.18 | 1007.61 | 1005.69 | 1003.72 | 1494.3 | 1508.2 | 1520.2 | 1530.6 | 1539.6
m1 = 0.07 | 1011.48 | 1010.16 | 1008.56 | 1006.61 | 1004.62 | 1495.1 | 1509 | 1521 | 1531.4 | 1540.4
m1 = 0.075 | 1012.36 | 1011.1 | 1009.46 | 1007.55 | 1005.58 | 1496 | 1509.8 | 1521.8 | 1532.1 | 1541.1
m1 = 0.08 | 1013.3 | 1011.98 | 1010.34 | 1008.42 | 1006.46 | 1496.8 | 1510.6 | 1522.6 | 1532.9 | 1541.9
m1 = 0.085 | 1014.21 | 1012.93 | 1011.23 | 1009.29 | 1007.35 | 1497.7 | 1511.4 | 1523.4 | 1533.7 | 1542.7
m1 = 0.09 | 1015.18 | 1013.88 | 1012.18 | 1010.25 | 1008.33 | 1498.5 | 1512.2 | 1524.2 | 1534.4 | 1543.4
m1 = 0.1 | 1016.99 | 1015.7 | 1014.08 | 1011.99 | 1010.23 | 1500.1 | 1513.9 | 1525.8 | 1536 | 1544.9

O=C[C@H](O)[C@H](O)[C@H](O)CO [D-ribose] + O
Details | mass density, 293.15 K [kg/m3] | mass density, 298.15 K [kg/m3] | mass density, 303.15 K [kg/m3] | mass density, 308.15 K [kg/m3] | mass density, 313.15 K [kg/m3] | speed of sound, 293.15 K [m/s] | speed of sound, 298.15 K [m/s] | speed of sound, 303.15 K [m/s] | speed of sound, 308.15 K [m/s] | speed of sound, 313.15 K [m/s]
m1 = 0.05 | 1001.07 | 999.887 | 998.463 | 996.819 | 994.955 | 1485.2 | 1499.2 | 1511.3 | 1521.9 | 1530.9
m1 = 0.055 | 1001.36 | 1000.17 | 998.749 | 997.103 | 995.237 | 1485.4 | 1499.4 | 1511.5 | 1522 | 1531
m1 = 0.06 | 1001.65 | 1000.47 | 999.035 | 997.383 | 995.517 | 1485.6 | 1499.5 | 1511.6 | 1522.2 | 1531.2
m1 = 0.065 | 1001.94 | 1000.75 | 999.317 | 997.667 | 995.796 | 1485.8 | 1499.7 | 1511.8 | 1522.3 | 1531.3
m1 = 0.07 | 1002.23 | 1001.04 | 999.606 | 997.954 | 996.076 | 1485.9 | 1499.8 | 1511.9 | 1522.5 | 1531.4
m1 = 0.075 | 1002.52 | 1001.33 | 999.887 | 998.237 | 996.357 | 1486.1 | 1500 | 1512 | 1522.6 | 1531.6
m1 = 0.08 | 1002.82 | 1001.62 | 1000.17 | 998.519 | 996.637 | 1486.2 | 1500.1 | 1512.2 | 1522.7 | 1531.7
m1 = 0.085 | 1003.11 | 1001.91 | 1000.47 | 998.806 | 996.917 | 1486.4 | 1500.2 | 1512.2 | 1522.8 | 1531.8
m1 = 0.09 | 1003.4 | 1002.21 | 1000.75 | 999.089 | 997.196 | 1486.5 | 1500.3 | 1512.4 | 1523 | 1532
m1 = 0.1 | 1003.98 | 1002.79 | 1001.33 | 999.652 | 997.754 | 1486.8 | 1500.6 | 1512.6 | 1523.2 | 1532.2

CC(C)C[C@H](N)C(=O)O [L-leucine] + O
Details | mass density, 293.15 K [kg/m3] | mass density, 298.15 K [kg/m3] | mass density, 303.15 K [kg/m3] | mass density, 308.15 K [kg/m3] | mass density, 313.15 K [kg/m3] | speed of sound, 293.15 K [m/s] | speed of sound, 298.15 K [m/s] | speed of sound, 303.15 K [m/s] | speed of sound, 308.15 K [m/s] | speed of sound, 313.15 K [m/s]
m1 = 0.025 | 998.94 | 997.765 | 996.352 | 994.719 | 992.893 | 1486.2 | 1500.2 | 1512.3 | 1522.8 | 1531.7
m1 = 0.05 | 999.543 | 998.36 | 996.938 | 995.302 | 993.464 | 1489.2 | 1502.9 | 1515 | 1525.4 | 1534.2
m1 = 0.1 | 1000.6 | 999.369 | 997.956 | 996.293 | 994.341 | 1495.2 | 1508.8 | 1520.6 | 1530.8 | 1539.4
